{"source": "patent US8716180B2", "about": "(priority 2005, dated 2014)", "test_system": "deoxynivalenol (DON)", "parameters": "species or system winter wheat", "conditions": "in vivo"}
{"smiles": "N#Cc1c[nH]cc1-c1cccc2c1OC(F)(F)O2", "note": "[Lot B, fludioxonil]", "values": [{"measurement": "Amount of DON (deoxynivalenol) in the ear of wheat", "value": 0, "unit": "ppb"}]}
